From paper PMC4745983 (Frontiers in Cell and Developmental Biology, 2016)
Marks after values point to notes of the source that are not given here.

How the values were obtained:
[1] = system: Enterobacter aerogenes CECT684; assay: Growth curve inhibition of Enterobacter aerogenes CECT684; type: cell-based; conditions: growth curves of 8μM nisin and 8μM GNT16; GM17, 37°C
[2] = system: L. lactis MG1363; type: cell-based, Lactococcus lactis; conditions: from MIC values
Description: (§1) L. lactis strains were cultured in M17 broth supplemented with 0.5% (w/v) glucose (GM17) for genetic manipulation or in minimal expression medium (MEM) for protein expression at 30°C (Rink et al., [2005]). E. coli CECT101 was grown in Luria-Bertani broth aerated by shaking (200 rpm) at 37°C.
(§2) The indicator strains were first cultured until OD (600 nm) reached 0.5. When testing the MIC value, the culture was diluted 1000 times with the appropriate medium. All the tests were performed with a temperature controlled plate reader (Tecan infinite F200, Tecan Group AG) in a 96-well plate (Greiner Bio-one). The peptides were first diluted in gradient with medium and then mixed with diluted indicator strains. The final concentration of the peptides ranged from 0.00625 to 0.8 μM against L. lactis MG1363 and from 0.25 to 32 μM against E. coli CECT101 in 100 μl volume. The plate was incubated at 30°C or 37°C for 18 h depending on the indicator strain being L. lactis or E. coli, respectively. OD (600 nm) was checked every 30 min. For E. coli, 2 min of shaking was performed before every check. When testing the activity of nisin against E. coli in the presence of EDTA, an EDTA solution was prepared and added to a final concentration of 50, 110, or 250 μM. The minimal concentration of peptide causing no observed growth of indicator strains was considered as the MIC value.

[3] = system: E. coli CIP; assay: Growth curve inhibition of E. coli CIP; type: cell-based, Escherichia coli; conditions: growth curves of 8μM nisin and 8μM GNT16; Luria-Bertani broth, 37°C
[4] = system: E. coli CECT101; type: cell-based, Escherichia coli; conditions: growth curves, 18 h; experiment repeated three times
Description: as §1, §2

[5] = system: E. coli O157:H7; conditions: indicator strain E. coli O157:H7; ref Bikker et al., [2006]; cited from earlier work
Source text: (§3) Table 1 List of selected peptides with anti-Gram-negative bacteria activity. | column: MIC(μM)

[6] = system: E. coli UB1005; conditions: indicator strain E. coli UB1005; ref Hilpert et al., [2005]; cited from earlier work
Source text: as §3

[7] = system: E. coli ATCC 700928; conditions: indicator strain E. coli ATCC 700928; ref Sainath Rao et al., [2013]; cited from earlier work
Source text: as §3

For C=C1NC(=O)[C@H]([C@@H](C)CC)NC(=O)[C@H](NC(=O)/C(=C/C)NC(=O)[C@@H](N)[C@@H](C)CC)CSC[C@@H](C(=O)N[C@H]2C(=O)N3CCC[C@H]3C(=O)NCC(=O)N[C@H](C(=O)N[C@@H](CCCCN)C(=O)N[C@H]3C(=O)NCC(=O)N[C@@H](C)C(=O)N[C@@H](CC(C)C)C(=O)N[C@@H](CCSC)C(=O)NCC(=O)N[C@H](C(=O)N[C@@H](CC(N)=O)C(=O)N[C@@H](CCSC)C(=O)N[C@@H](CCCCN)C(=O)N[C@H]4C(=O)N[C@@H](C)C(=O)N[C@H]5C(=O)N[C@@H](CS[C@H]4C)C(=O)N[C@@H](Cc4c[nH]cn4)C(=O)N[C@H](C(=O)N[C@@H](CO)C(=O)N[C@H](C(=O)N[C@@H](Cc4c[nH]cn4)C(=O)N[C@H](C(=O)NC(=C)C(=O)N[C@@H](CCCCN)C(=O)N4CCC[C@H]4C(=O)N[C@@H](CCCNC(=N)N)C(=O)N4CCC[C@H]4C(=O)N4CCC[C@H]4C(=O)N[C@@H](Cc4c[nH]cn4)C(=O)N4CCC[C@H]4C(=O)N[C@@H](CCCNC(=N)N)C(=O)N[C@@H](CC(C)C)C(=O)O)C(C)C)[C@@H](C)CC)CS[C@H]5C)CS[C@H]3C)CS[C@H]2C)NC(=O)[C@H](CC(C)C)NC1=O [GNT16], which “Inhibitory activity against Enterobacter aerogenes CECT684 compared with nisin” value [1] is on record?
The value was “equal or slightly better inhibitory activity than nisin”.

And the “Decrease of activity against L. lactis MG1363 relative to nisin” value [2]?
Its value is 32 times.

And the “Inhibitory activity against E. coli CIP compared with nisin” value [3]?
The value was “equal or slightly better inhibitory activity than nisin”.

What about the “Concentration that fully inhibits growth of E. coli CECT101 within 18 h (Figure 3)” value [4] of the same compound?
The value was 8 µM.

Which MIC [5] does the source give for GKPRPYSPRPTSHPRPIRV [Drosocin] here?
The MIC was 25^c μM.

Which MIC [6] does the source give for RIWVIWRR-NH2 [Bac8c] here?
The MIC was 1.7^e μM.

Which MIC [7] does the source give for RLLFRKIRRLKR [EC5] here?
The MIC was 4.8^d μM.
